{"source": "patent US8658167B2", "about": "“Methods and compositions for treatment and diagnosis of fibrosis, tumor invasion, angiogenesis, and metastasis” (Gilead Biologics, Inc., priority 2007, dated 2014)", "key": {"MDA-MB-231": {"tested_on": "MDA-MB-231", "assay": "Drug sensitivity assays with LOX/LOXL inhibition (CellTiter Glo viability)", "assay_type": "cell-based, human", "procedure": "After 5 days of continuous exposure, cultures were rinsed and live cell number was determined using CellTiter Glo™ (Promega, San Luis Obispo, Calif.) according to manufacturer instructions. […] (FIGS. 36, 37, 38)\nFor siRNA drug sensitivity studies, cells were transiently transfected with […] LOX, LOXL2, or non-targeting Stealth Select™ RNAi validated oligos using the Dharmafect transfection reagent according to manufacturer instructions (Thermo Scientific, Lafayette, Colo.) 24 hrs prior to drug exposure. Knock down levels following drug exposure were verified with quantitative PCR. Stable shRNA cell lines were generated using the MISSION© shRNA Lentiviral System (Sigma-Aldrich, St. Louis, Mo.)."}, "LOXL2": {"tested_on": "LOXL2", "assay": "Mode of inhibition of LOXL2", "assay_type": "biochemical", "settings": "1,5-diaminopentane substrate; FIG. 21", "procedure": "Mode of inhibition of antibodies against LOXL2 was conducted using the model described below. In these experiments, the dependence of the steady state rate on the concentration of 1,5-diaminopentane was monitored under increasing concentrations of antibody. The purpose was to assess whether the Km for substrate, kcat or both change in the presence of antibody. Parameter α describes the effect of the compound on substrate affinity. An α value equal to one describes a situation in which the compound binds equally well the free enzyme and the enzyme-substrate complex (non-competitive inhibition like). Values less than one describe an interaction in which the compound binds the enzyme-substrate complex (uncompetitive inhibition like). Values greater than one correspond to the compound binding the free enzyme better than the enzyme-substrate complex (competitive inhibition like). The β value describes the effect of the modulator on the rate of the enzyme. Inhibitors have values less than one (for a complete inhibitor β=0) and activators have values greater than one. […] The steady state rates were determined from the slope of the fluorescence response as a function of time as described above. Data was plotted as the dependence of steady state rate on the concentration of substrate (1,5-diaminopentane) at several fixed concentrations of antibody and analyzed with GraFit."}, "LOX": {"target": "T1, LOX (Mus musculus, UniProt P28301)", "T1 construct": "Specific LOX activity was evident on the cell surface of NIH3T3 cells; endogenous in cells; host or cells: NIH 3T3", "T1 sequence (P28301 163-411)": "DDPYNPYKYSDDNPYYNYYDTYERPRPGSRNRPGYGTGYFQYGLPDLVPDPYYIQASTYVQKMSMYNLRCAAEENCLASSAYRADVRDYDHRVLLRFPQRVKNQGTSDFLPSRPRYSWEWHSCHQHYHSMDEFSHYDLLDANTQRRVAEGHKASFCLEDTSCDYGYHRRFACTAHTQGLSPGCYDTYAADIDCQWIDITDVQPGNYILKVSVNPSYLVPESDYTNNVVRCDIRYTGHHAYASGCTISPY", "assay": "Surface-associated LOX activity in 3T3 cells (HRP-coupled Amplex Ultra Red assay, 1,5-diaminopentane substrate)", "assay_type": "cell-based", "settings": "BAPN 1 mM; LOX mAb 15 ug/ml; LOX siRNA 100 nM, day seven after transfection; FIG. 15", "procedure": "Specific LOX activity was evident on the cell surface of NIH3T3 cells. Activity was quantitated with a horseradish peroxidase-coupled fluorescent assay method based on the oxidation of Amplex Ultra Red with a 1,5-diaminopentane substrate. LOX activity was inhibited with the irreversible small molecule inhibitor, BAPN, with a monoclonal antibody raised against a LOX peptide, and with a siRNA oligonucleotide specifically targeting LOX mRNA. (FIG. 15)\nNIH 3T3 cells were transfected with 100 nM of LOX siRNA (Invitrogen Stealth, HSS106117, […] (SEQ ID NO:20)) or non-targeting control. 25 ul of Dharmafect® #3 (Dharmacon) was mixed with 1 ml of OPTIMEM I® (Invitrogen) and sat for 5 minutes at room temperature. 50 ul of 20 uM siRNA was then added, mixed and the transfection mix was incubated at room temperature for 15 minutes. 1 ml of transfection mix was then added to a trypsinized cell suspension in growth media containing 1×10^6 cells and the resulting mixture was plated into a 10 cm^2 culture dish. Six days after transfection, cells were trypsinized and re-plated into 96 well plate format at 50,000 cells/well. […] The plate was read in a Molecular Devices M5 plate reader at 37° C. The plate reader was configured to read fluorescence (ex=544 nm, em=590 nm) in kinetics mode for approximately 2.5 hours."}}, "data": [{"smiles": "C#Cc1cccc(Nc2ncnc3cc(OCCOC)c(OCCOC)cc23)c1", "note": "[erlotinib, Erlotinib]", "values": [{"measurement": "reduction in cell viability (calculated IC50 compared to control line)", "setting": "MDA-MB-231; shLOXL2 knockdown cell line (shLOXL2.195) vs sh control, parental MDA-MB-231, FIG. 36", "result": "approximately 7 fold"}]}, {"smiles": "CN(Cc1cnc2nc(N)nc(N)c2n1)c1ccc(C(=O)N[C@@H](CCC(=O)O)C(=O)O)cc1", "note": "[methotrexate (MTX), methotrexate]", "values": [{"measurement": "reduction in viability", "setting": "MDA-MB-231; MDA-MB-231 shLOX knockdown cell line vs GFP control, FIG. 37", "result": "~2", "unit": "fold"}]}, {"smiles": "N#CCCN", "note": "[BAPN, β-aminoproprionitrile]", "values": [{"measurement": "mode of inhibition of LOXL2", "setting": "LOXL2", "result": "competitive inhibitor"}, {"measurement": "surface-associated LOX activity in 3T3 cells", "setting": "LOX", "result": "inhibited"}]}, {"smiles": "COc1cccc2c1C(=O)c1c(O)c3c(c(O)c1C2=O)C[C@@](O)(C(=O)CO)C[C@@H]3O[C@H]1C[C@H](N)[C@H](O)[C@H](C)O1", "note": "[doxorubicin]", "values": [{"measurement": "decrease of calculated IC50", "setting": "MDA-MB-231; MDA-MB-231 siLOX, siLOXL2 and siLOX/siLOXL2 double knockdown cell lines vs parent cell line (control), FIG. 39A", "result": "27%-55%"}]}]}
